Experimental data as given in US10508092B2, “Synthesis of novel analogs of diptoindonesin G, compounds formed thereby, and pharmaceutical compositions containing them” (Wisconsin Alumni Research Foundation, priority 2016, dated 2019).
“Also recorded” adds a separate entry of the source.

How the values were obtained:
ERα = biological target: T1, ERα (Homo sapiens, UniProt P03372); assay: Direct binding to ERα
T1 sequence (P03372 1-595): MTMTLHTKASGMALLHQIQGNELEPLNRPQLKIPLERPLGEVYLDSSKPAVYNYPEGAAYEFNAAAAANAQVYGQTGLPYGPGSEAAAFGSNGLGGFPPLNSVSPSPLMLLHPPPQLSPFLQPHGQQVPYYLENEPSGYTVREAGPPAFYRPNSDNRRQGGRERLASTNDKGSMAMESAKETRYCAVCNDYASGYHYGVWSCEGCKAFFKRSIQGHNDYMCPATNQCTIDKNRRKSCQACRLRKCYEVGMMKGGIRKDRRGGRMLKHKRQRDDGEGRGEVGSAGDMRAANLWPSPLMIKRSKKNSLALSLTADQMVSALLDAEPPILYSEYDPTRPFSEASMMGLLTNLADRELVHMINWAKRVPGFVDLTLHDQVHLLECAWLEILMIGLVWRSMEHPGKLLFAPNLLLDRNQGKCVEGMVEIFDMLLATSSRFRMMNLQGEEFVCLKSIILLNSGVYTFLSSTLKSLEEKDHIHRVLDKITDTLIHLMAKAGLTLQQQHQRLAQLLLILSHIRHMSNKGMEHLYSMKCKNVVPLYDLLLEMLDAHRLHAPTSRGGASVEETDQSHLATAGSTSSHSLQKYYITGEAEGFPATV

wildtype ERα = assay: ERE-Luciferase activity of wildtype ERα in T47D cells; assay type: cell-based, human; details: co-treated with 10 nM E2, 10 μM, 24 hrs
Description: FIG. 6 is a histogram depicting Dip G- and Dip G-D1-inhibited E2-dependent ERE-Luciferase activities of wildtype ERα or ERα Y537S in T47D cells. Cells were co-treated with 10 nM E2 and Dip G or Dip G-D1 (10 μM) for 24 hrs. The experiments were performed in triplicate. Data are represented as mean±SD, n=3.

[1] = test system: estrogen receptor α (ERα); assay: Western blot of ERα levels in MCF7 cells; assay type: cell-based, human
Description: FIGS. 1A, 1B, and 1C together depict the biological activity of the subject compounds on estrogen receptor α (ERα) levels in human breast cancer cells.
The biological activity of these four analogs were then compared with the parent compound Dip G following our previous protocol (Zhao et al., supra). See FIGS. 1A, 1B, 1C, 2A, 2B, and 2C. Cells were treated with each compound at 10 μM concentration in order to evaluate how well each modified the stability of ERα and ERβ.
MCF7 cells were treated with Dip G and analogs for 24 hours before harvesting. Hs578T-tet-on-ERβ cells (ATCC HTB-126; American Type Culture Collection, Manassas, Va.) were treated with doxycycline for 24 hours to induce ERβ expression. Then the cells were treated with compounds for 5 days before harvesting. 15 μg of total cell lysates were resolved on SDS-PAGE and Western blot analyses were performed as previously described using ERα antibody (HC-20, Santa Cruz Biotechnology, Inc., Dallas, Tex.) and anti-FLAG antibody (F7425, Sigma-Aldrich Co., LLC, St. Louis, Mo.) for ERβ.^3

CHIP ubiquitin E3 ligase = biological target: T2, CHIP ubiquitin E3 ligase (Homo sapiens, UniProt Q9UNE7); assay: Binding to CHIP ubiquitin E3 ligase
T2 sequence (Q9UNE7 1-303): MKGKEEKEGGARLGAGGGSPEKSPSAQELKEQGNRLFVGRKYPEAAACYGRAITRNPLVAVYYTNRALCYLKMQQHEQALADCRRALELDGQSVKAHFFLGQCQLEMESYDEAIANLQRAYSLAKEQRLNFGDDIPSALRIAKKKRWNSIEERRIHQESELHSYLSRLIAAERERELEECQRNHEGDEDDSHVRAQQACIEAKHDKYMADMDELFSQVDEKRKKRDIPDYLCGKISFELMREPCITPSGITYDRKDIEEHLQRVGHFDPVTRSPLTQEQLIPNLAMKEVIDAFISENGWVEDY

SMILES: O=C1c2c(O)cc(O)cc2-c2c(-c3ccc(O)cc3)oc3cc(O)cc1c23 [Dip G, diptoindonesin G]
- direct binding to ERα (ERα): does not directly bind
- E2-dependent ERE-Luciferase activity of wildtype ERα (wildtype ERα): inhibited
- amount of endogenous ERα in MCF7 cells ([1]; 10 μM, compared to untreated cells, gel blot FIG. 4): degrades endogenous ERα; also recorded: greatly decreased
- ERα stability ([1]; MCF7 cells, 10 μM, 24 hours, Western blot): decreased ERα stability with the largest change
- endogenous ERα protein levels ([1]; MCF7 cells, FIG. 4): less than 20%
- binding to CHIP ubiquitin E3 ligase (CHIP ubiquitin E3 ligase): binds
